Results published in US20090220996A1, “In vitro Assay Methods for Classifying Embryotoxicity of Compounds” (RELIANCE LIFE SCIENCES PVT LTD., priority 2007, published 2009).
≈ marks a conversion by molar mass, not a printed value. Where two headings read alike, the source gives them in different places.

Columns and labels:
[1] = system: human foreskin fibroblasts (HFF); assay: Cytotoxicity in human foreskin fibroblasts, day 15 (MTT / CyQUANT); assay type: cell-based; settings: for IC50: Homo sapiens, Fibroblast
Protocol: In general, the presently disclosed embryotoxicity testing protocols comprise the following sequence of steps. Studies using embryoid bodies generally comprise: a) preparation of various concentrations of test solutions in culture medium or a desired solvent; b) preparation of a cell suspension by enzymatic digestion of human embryonic stem cell colonies; c) culturing the cell suspension for formation of embryoid bodies in the presence and absence of one or more test solutions, and incubation for several days (e.g., three days) in hanging drops; d) cultivation of the embryoid bodies in bacteriological petri dishes for several days (e.g., two days) under controlled conditions; e) transfer of the embryoid bodies into 96 well plates and incubation for several days (e.g., 10 days) in the presence of one or more test solutions; and f) detection of the viability of the embryoid bodies after 15 days by MTT assay, or fluorescent or luminescent method, and isolation of RNA for studying gene expression. Studies using human foreskin fibroblasts (HFF) generally comprise: a) preparation of various concentrations of test solutions in culture medium or a desired solvent; b) plating of HFF cells in 96 well plates in the presence or absence of one or more test solutions for 15 days, changing the media and test solutions every 2 days; and c) detection of the viability of HFF after 15 days by MTT assay, or fluorescent or luminescent method. Studies using human embryonic stem cells generally comprise: a) preparation of various concentrations of test solutions in culture medium or a desired solvent; b) preparation of hES colonies by manual passage in the presence and absence of one or more test solutions, and incubation for 15 days on matrigel coated plates changing the media and test solutions every 2 days; c) disruption of the colonies after 15 days with enzymes to form single cells; d) labeling of single cells with a fluorescently-labeled dye, such as propidium iodide (“PI”); and e) detection of the percentage viability with FACS as a measure of cytotoxicity.
HFF were trypsinized, and a cell suspension of 1×10^4 cells/ml in routine culture medium was prepared. Using a multi-channel pipette, 50 μl volumes of the cell suspension (500 cells/well) was dispensed. Viability of the cells can be checked by staining an aliquot of the cell suspension with trypan blue. A viability of 90% is acceptable. The cells were incubated for 2 hours in a humidified atmosphere with 5% CO2 at 37° C., which allows for adherence of the cells. After 15 days of culture with medium changes (containing appropriate test compound concentrations) every 3 days, the viability of the cells was determined using the MTT test, which was detected quantitatively using a microplate ELISA reader at 570 nm with a 630 nm reference filter.
Cytotoxicity analysis of three cell types (hES, hEBs and HFF) was evaluated using the CyQUANT assay following compound treatment. All data were the mean of three independent experiments for each cell type. Data is represented as the mean±SE.
The endpoints of detection chosen in the study was inhibition of cell proliferation in human ES cells (IC50 hES), differentiating EBs (IC50 hEB), and in HFF (IC50 HFF), as evidenced in a cell viability assay using CyQuant assay.

[2] = system: human embryoid bodies (hEBs); assay: Morphological evaluation of embryoid bodies (photomicrographs); assay type: cell-based; settings: for morphology of treated hEBs compared to controls: day 7, 10 μg/ml (FIG. 4E-c, 4F-c); for concentration required to elicit a similar morphological response (loss of compactness, decreased EB size): day 7 hEBs, FIG. 4A-4D
Protocol: Hanging drops were made in hES media with LIF and bFGF for calculating IC50-hES cells, and in hES media without LIF and bFGF (hEB media) for the formation of EBs. On day 3 the hES colonies were collected along with the respective test compound concentration, whereas the hEBs were collected and transferred to 60 mm bacteriological petri plates for another 2 days. Morphology of the EBs was monitored under the microscope for the formation of EBs. On day 5 the hEBs were plated in a 96 well plate for MTT, as well as on a 6 well plate for RNA extraction. The media along with the appropriate test compound concentration was replaced in the 96 well and 6 well plates on days 7, 9, 11, and 13. On day 15, MTT was performed on the hES plate and the differentiated EBs. RNA was extracted from all the concentrations of 5-fluorouracil, and 1 μg of RNA was converted to cDNA to perform RT-PCR, real time PCR, or TLDA.

[3] = cited from earlier work
[4] = 360 h, Table 3, mean of 3 experiments, day 15, read-out: IC50-HFF
[5] = Table 4, CyQuant cell viability assay, read-out: Human EST IC50 - HFF

Structure (SMILES) | IC50 [1, 4] | IC50 [1, 5] | morphology of treated hEBs compared to controls [2] | Therap. range in human serum [3] | concentration required to elicit a similar morphological response (loss of compactness, decreased EB size) [2] | further results
O=c1[nH]cc(F)c(=O)[nH]1 [5-Fluorouracil, 5-fluorouracil] | 0.11 µg/mL (≈ 0.848 µM) | – | – | – | – | survival percentage ([1]; HFF, 1 μg/ml, day 15, FIG. 3A): 7%; effect on cell viability ([1]; HFF, up to 0.01 μg/ml, FIG. 3A): no major effect; morphology of 5 day old EBs compared to control ([2]; 1 μg/ml, day 5, FIG. 2A): significant change in the morphology
CS(=O)(=O)OCCCCOS(C)(=O)=O [Busulfan, busulfan] | 2.7 ± 0.2 µg/mL (≈ 11 µM) | 2.7 ± 0.2 µg/mL (≈ 11 µM) | loss of compactness and a decrease in the size of the EBs | <0.6 µg/mL | – | Therap. range in human serum ([3]; listed as busulfan): less than 0.6 μg/ml
Cn1c(=O)c2c(ncn2C)n(C)c1=O [Caffeine, caffeine] | 79.3 ± 3.4 µg/mL (≈ 408 µM) | 79.3 ± 3.4 µg/mL (≈ 408 µM) | – | – | – | survival ([1]; HFF, 500 μg/ml, FIG. 3B): about 10%; morphology of 5 day old EBs ([2]; increasing dose (50 and 500 μg/ml), day 5, FIG. 2B): significant darkening of the cells
NC(=O)NO [Hydroxyurea, hydroxyurea] | 8.9 ± 0.9 µg/mL (≈ 117 µM) | 8.9 ± 0.9 µg/mL (≈ 117 µM) | loss of compactness and a decrease in the size of the EBs | <9.88 µg/mL | – | –
COc1ccc2c(c1)c(CC(=O)O)c(C)n2C(=O)c1ccc(Cl)cc1 [Indomethacin, indomethacin] | 33.5 ± 1.3 µg/mL (≈ 93.6 µM) | 33.5 ± 1.3 µg/mL (≈ 93.6 µM) | – | – | 100 μg/ml | –
CC1(C)S[C@@H]2[C@H](NC(=O)Cc3ccccc3)C(=O)N2[C@H]1C(=O)O [Penicillin G, penicillin G] | – | – | – | 300 to 500 µg/mL | 5000 μg/ml | cell survival ([1]; HFF, 5000 μg/ml (highest dose), FIG. 3C): 1-2%; IC50-HFF ([1]; Table 3, mean of 3 experiments, day 15): 1661 ± 23.5 µg/mL (≈ 4970 µM); Human EST IC50 - HFF ([1]; Table 4, CyQuant cell viability assay): 1661 ± 23.5 µg/mL; morphology of 5 day old EBs ([2]; 5000 μg/ml (highest dose), day 5, FIG. 2C): non-significant darkening; morphology of 5 day old EBs ([2]; up to 1000 μg/ml, day 5, FIG. 2C): no significant change
